Test results from patent US8674172B2, “Prostate cancer cell lines and their use in screening method” (Institut Gustave Roussy, priority 2009, dated 2014).
“Also recorded” adds a separate entry of the source.

What was measured:
Assay type in all cases: cell-based, human
[1] = system: IGR-CaP1-R100 cell line; assay: Resistance of the cell line to a cytotoxic drug
[2] = system: IGR-CaP1 cells; assay: Cell cycle analysis by flow cytometry after propidium iodide staining; conditions: sensitive IGR-CaP1 cells, 100 nM docetaxel for 48 h
Procedure: (§1) Freshly plated IGR-CaP1 and IGR-CaP1-R100 cells were incubated for 48 h in complete medium containing or not 100 nM of docetaxel. Cell cycle distribution was studied on 70% cold ethanol-fixed cells, by propidium iodide staining (50 μg in PBS) and RNAse treatment (20 μg) followed by flow cytometry analysis (FACScalibur Becton-Dickinson).

[3] = system: IGR-CaP1-R100 cells; assay: as above; conditions: IGR-CaP1-R100 cells resistant to 100 nM docetaxel, 100 nM docetaxel for 48 h
Procedure: as §1

[4] = system: LNCaP cells; assay: Hormone-dependent growth assay (WST1 cell survival); conditions: 10^-9M DHT for 72 hours, phenol red free medium with charcoal-stripped serum
Procedure: (§2) The cell growth kinetic was determined by counting the viable cell number at regular intervals. Cells were seeded in triplicate at 4000 cells/well in 12 well plates in normal culture medium or in medium containing 10% of charcoal-stripped serum. Each day, cells were colored with trypan blue and counted. The doubling-time was calculated from regression equation of the curve. For the hormone-dependent growth assay, cells were seeded at 10 000 cells/well in 96 well plates. After 24 h, the culture medium was replaced with medium without phenol red containing 10% of charcoal-stripped serum and the DHT was added or not at the final concentration of 10^−9M. The medium was replaced each day. After 72 hours, cell survival was measured with the WST1 test according the manufacturer's procedures.

[5] = system: IGR-CaP1 cells; assay: as above; conditions: 10^-9M DHT for 72 hours, phenol red free medium with charcoal-stripped serum
Procedure: as §2

[6] = system: PC3 cells; assay: as above; conditions: 10^-9M DHT for 72 hours, phenol red free medium with charcoal-stripped serum
Procedure: as §2

SMILES: N.N.[Cl][Pt][Cl] [cisplatin]
- Resistance of the cell line to the drug [1]: resistant

SMILES: CC(=O)O[C@@]12CO[C@@H]1C[C@H](O)[C@@]1(C)C(=O)[C@H](O)C3=C(C)[C@@H](OC(=O)[C@H](O)[C@@H](NC(=O)OC(C)(C)C)c4ccccc4)C[C@@](O)([C@@H](OC(=O)c4ccccc4)[C@H]21)C3(C)C [docetaxel]
- Cell cycle distribution (block in G2-M phase) [2]: blocked in G2-M phase
- Cell cycle distribution (block in G2-M phase) [3]: normally cycle; also recorded: not blocked in G2-M phase

SMILES: C[C@]12CCC(=O)C[C@@H]1CC[C@@H]1[C@@H]2CC[C@]2(C)[C@@H](O)CC[C@@H]12 [DHT]
- Cellular growth in the presence of androgen [4]: increased
- Cellular growth in the presence of androgen [5]: did not affect the cellular growth
- Cellular growth in the presence of androgen [6]: did not affect the cellular growth
